Like-named read-outs stand apart in the source and are kept apart here.
Tests used:
AHR [1] = target: T1, AHR (Homo sapiens, UniProt P35869); experiment: In vitro assay 1: antagonism in human cell line (AHR transactivation, firefly luciferase reporter, kynurenic acid prestimulated); type: cell-based; conditions: AHR Antagonism Human IC50 [M]
T1 construct: U87 MG glioblastoma cells (ATCC #HTB-14) endogenously expressing AHR; endogenous in cells; host or cells: U87 MG glioblastoma cells (ATCC #HTB-14)
T1 sequence (P35869 11-848): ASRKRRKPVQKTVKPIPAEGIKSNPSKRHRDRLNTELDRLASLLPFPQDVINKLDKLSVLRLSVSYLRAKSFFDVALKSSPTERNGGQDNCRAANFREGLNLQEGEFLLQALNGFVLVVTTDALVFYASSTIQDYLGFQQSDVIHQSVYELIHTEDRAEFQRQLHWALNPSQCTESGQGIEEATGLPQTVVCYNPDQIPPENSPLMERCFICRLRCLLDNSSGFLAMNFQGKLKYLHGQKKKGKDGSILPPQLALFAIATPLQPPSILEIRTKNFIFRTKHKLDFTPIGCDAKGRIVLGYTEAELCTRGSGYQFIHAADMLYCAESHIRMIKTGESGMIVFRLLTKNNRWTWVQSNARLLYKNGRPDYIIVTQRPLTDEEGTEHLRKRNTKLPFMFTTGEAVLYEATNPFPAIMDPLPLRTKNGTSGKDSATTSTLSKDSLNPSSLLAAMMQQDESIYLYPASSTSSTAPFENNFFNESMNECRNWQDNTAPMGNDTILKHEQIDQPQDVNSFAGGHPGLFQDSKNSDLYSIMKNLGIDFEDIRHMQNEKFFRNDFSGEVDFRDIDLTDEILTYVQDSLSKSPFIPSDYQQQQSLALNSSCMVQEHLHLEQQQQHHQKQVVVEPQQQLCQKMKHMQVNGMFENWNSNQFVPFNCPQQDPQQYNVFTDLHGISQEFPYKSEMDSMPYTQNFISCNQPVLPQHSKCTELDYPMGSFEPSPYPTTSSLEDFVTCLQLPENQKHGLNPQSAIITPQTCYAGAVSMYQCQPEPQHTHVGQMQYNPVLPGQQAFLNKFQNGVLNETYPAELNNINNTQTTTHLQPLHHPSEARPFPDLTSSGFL
Method in brief: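 U87 MG + DRE-firefly/constitutive-Renilla stable reporters; kynurenic acid prestim; dual-luc read; Renilla = tox; normalized vs pos/neg controls (pos: 150 μM KYNA + 5 μM staurosporine).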

AHR [2] = target: T2, AHR (Mus musculus, UniProt P30561); experiment: In vitro assay 3: antagonism in mouse cell line (AHR transactivation, firefly luciferase reporter, kynurenic acid prestimulated); type: cell-based
T2 sequence (P30561 1-848 P471L/N533S/M589L): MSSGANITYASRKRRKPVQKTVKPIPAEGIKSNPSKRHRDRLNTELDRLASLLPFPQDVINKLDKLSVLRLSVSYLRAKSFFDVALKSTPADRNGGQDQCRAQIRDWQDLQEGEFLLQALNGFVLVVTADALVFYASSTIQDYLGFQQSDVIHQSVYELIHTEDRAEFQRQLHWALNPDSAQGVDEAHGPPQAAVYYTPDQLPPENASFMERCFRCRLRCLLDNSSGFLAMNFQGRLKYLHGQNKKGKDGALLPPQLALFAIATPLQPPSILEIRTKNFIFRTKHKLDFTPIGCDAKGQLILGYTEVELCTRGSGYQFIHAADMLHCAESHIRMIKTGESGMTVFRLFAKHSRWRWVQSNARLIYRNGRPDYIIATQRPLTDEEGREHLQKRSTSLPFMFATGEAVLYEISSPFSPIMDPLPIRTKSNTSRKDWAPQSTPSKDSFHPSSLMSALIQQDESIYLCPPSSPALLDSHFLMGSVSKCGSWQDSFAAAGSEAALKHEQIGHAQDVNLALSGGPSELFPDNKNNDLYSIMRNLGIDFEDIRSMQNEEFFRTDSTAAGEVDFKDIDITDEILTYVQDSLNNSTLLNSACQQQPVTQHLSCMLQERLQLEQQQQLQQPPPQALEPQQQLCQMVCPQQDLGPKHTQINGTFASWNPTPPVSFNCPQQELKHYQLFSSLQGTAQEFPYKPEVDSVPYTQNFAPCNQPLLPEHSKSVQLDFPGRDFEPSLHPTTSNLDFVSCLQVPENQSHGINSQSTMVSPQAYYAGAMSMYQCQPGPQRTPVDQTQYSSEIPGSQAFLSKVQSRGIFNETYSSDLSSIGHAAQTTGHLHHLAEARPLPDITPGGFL
Method in brief: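 Mouse cells stably carrying a DRE-driven, AHR-inducible firefly luciferase reporter were prestimulated with the endogenous agonist kynurenic acid before compound addition. Luciferase activity was measured by luminescence and normalized to positive and negative controls, with cells lacking kynurenic acid serving as full-inhibition control. Repeat tests are reported as mean or median.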

[3] = mouse Hepa 1c1c7 cells, 200 μM kynurenic acid, 20 hours, read-out: AHR Antagonism Mouse IC50
[4] = read-out: AHR Antagonism Mouse IC50, mouse Hepa 1c1c7 cells, 200 μM kynurenic acid, 20 hours

| IC50 (AHR [1]) [M] | IC50 (AHR [2]; [3]) [nM] | SMILES | IC50 (AHR [2]; [4]) [nM] | IC50 (AHR [1]; firefly luciferase reporter) [M] | IC50 (AHR [2]; read-out: AHR Antagonism Mouse IC50, Hepa 1c1c7 cells, 200 μM kynurenic acid, 20 hours, firefly luciferase reporter) [nM] |
| --- | --- | --- | --- | --- | --- |
| 5.37e-07 | 114 | Cc1nnc(-c2nc3c4ccccc4nc(N[C@@H]4CCCCNC4=O)n3n2)o1 [Example 199, (3R)-3-{[2-(5-methyl-1,3,4-oxadiazol-2-yl)[1,2,4]triazolo[1,5-c]quinazolin-5-yl]amino}azepan-2-one] | – | – | – |
| 1.03e-09 | 0.227 | COc1cccc(-c2nc3c4cc(F)ccc4nc(N[C@@H]4CCCCNC4=O)n3n2)c1 [Example 159, (3R)-3-{[9-fluoro-2-(3-methoxyphenyl)[1,2,4]triazolo[1,5-c]quinazolin-5-yl]amino}azepan-2-one] | – | – | – |
| 2.06e-07 | 50.8 | O=C1NCCCC[C@@H]1Nc1nc2ccccc2c2nc(-c3cccc(OC(F)(F)F)c3)nn12 [Example 315, (3S)-3-({2-[3-(trifluoromethoxy)phenyl][1,2,4]triazolo[1,5-c]quinazolin-5-yl}amino)azepan-2-one] | – | – | – |
| 5.1e-09 | 5.66 | COc1cccc(-c2nc3c4ccccc4nc(N[C@@H](C)C(N)=O)n3n2)c1 (single isomer, unassigned) [Example 86, N^2-[2-(3-methoxyphenyl)[1,2,4]triazolo[1,5-c]quinazolin-5-yl]alaninamide] | – | – | – |
| 7.02e-10 | 1.41 | O=C1NCCCC[C@H]1Nc1nc2c(C(F)(F)F)cccc2c2nc(-c3cnn(C4CCC4)c3)nn12 [Example 741, (3R)-3-{[2-(1-cyclobutyl-1H-pyrazol-4-yl)-7-(trifluoromethyl)[1,2,4]triazolo[1,5-c]quinazolin-5-yl]amino}azepan-2-one] | – | – | – |
| 2.66e-07 | 35.6 | COc1ccc(-c2nc3c4ccccc4nc(N[C@H]4CCCCNC4=O)n3n2)c(C(F)(F)F)c1 [Example 513, (3S)-3-({2-[4-methoxy-2-(trifluoromethyl)phenyl][1,2,4]triazolo[1,5-c]quinazolin-5-yl}amino)azepan-2-one] | – | – | – |
| – | – | COc1ccc(-c2nc3c4cccc(Br)c4nc(N[C@H](C)C(=O)NCCN(C)C(=O)OC(C)(C)C)n3n2)cc1 [Example 887, tert-butyl [2-({N-[7-bromo-2-(4-methoxyphenyl)[1,2,4]triazolo[1,5-c]quinazolin-5-yl]-D-alanyl}amino)ethyl]methylcarbamate] | – | 1.37e-09 | 10.1 |
| 3.15e-09 | 1.78 | CC[C@@H](Nc1nc2ccccc2c2nc(-c3csc(C)c3)nn12)C(N)=O [Example 358] | – | – | – |
| 4.41e-09 | 1.14 | Cc1nn(C2CC2)c(C)c1-c1nc2c3cccc(C(F)(F)F)c3nc(N[C@@H]3CCCCNC3=O)n2n1 [Example 745, (3R)-3-{[2-(1-cyclopropyl-3,5-dimethyl-1H-pyrazol-4-yl)-7-(trifluoromethyl)[1,2,4]triazolo[1,5-c]quinazolin-5-yl]amino}azepan-2-one] | – | – | – |
| 7.93e-10 | 0.946 | COc1ccc(-c2nc3c4cccc(Br)c4nc(N[C@@H]4CNCCNC4=O)n3n2)cc1 [Example 270, (6R)-6-{[7-bromo-2-(4-methoxyphenyl)[1,2,4]triazolo[1,5-c]quinazolin-5-yl]amino}-1,4-diazepan-5-one] | – | – | – |
| 9.04e-08 | 76.5 | COc1cccc(-c2nc3c4ccccc4nc(NC4CNCCNC4=O)n3n2)c1 (single isomer, unassigned) [Example 117, 6-{[2-(3-methoxyphenyl)[1,2,4]triazolo[1,5-c]quinazolin-5-yl]amino}-1,4-diazepan-5-one] | – | – | – |
| 2.18e-09 | 1.16 | COc1cccc(-c2nc3c4cc(C)ccc4nc(N[C@@H]4CCCCNC4=O)n3n2)c1 [Example 154, (3R)-3-{[2-(3-methoxyphenyl)-9-methyl[1,2,4]triazolo[1,5-c]quinazolin-5-yl]amino}azepan-2-one] | – | – | – |
| 6.11e-08 | 18.1 | COCCn1cc(-c2nc3c4ccccc4nc(N[C@@H]4CCCCNC4=O)n3n2)cn1 [Example 432, (3R)-3-({2-[1-(2-methoxyethyl)-1H-pyrazol-4-yl][1,2,4]triazolo[1,5-c]quinazolin-5-yl}amino)azepan-2-one] | – | – | – |
| 9.89e-09 | 40.6 | CCn1cc(-c2nc3c4cccc(OC)c4nc(N[C@@H]4CCCCNC4=O)n3n2)c(C)n1 [Example 753, (3R)-3-{[2-(1-ethyl-3-methyl-1H-pyrazol-4-yl)-7-methoxy[1,2,4]triazolo[1,5-c]quinazolin-5-yl]amino}azepan-2-one] | – | – | – |
| 2.29e-07 | 953 | COc1cccc2c1nc(N[C@@H]1CCCCNC1=O)n1nc(-c3cnn(C)c3)nc21 [Example 752, (3R)-3-{[7-methoxy-2-(1-methyl-1H-pyrazol-4-yl)[1,2,4]triazolo[1,5-c]quinazolin-5-yl]amino}azepan-2-one] | – | – | – |
| 2.38e-07 | 31.5 | COc1ccc(-c2nc3c4cc(C(C)C)ccc4nc(N[C@@H]4CCCCNC4=O)n3n2)cc1 [Example 392, (3R)-3-{[2-(4-Methoxyphenyl)-9-(propan-2-yl)[1,2,4]triazolo[1,5-c]quinazolin-5-yl]amino}azepan-2-one] | – | – | – |
| > 2e-05 | 2970 | O=C1NCC[C@H]1Nc1nc2ccccc2c2nc(-c3cc(Cl)ccc3OC(F)(F)F)nn12 [Example 500, (3R)-3-({2-[5-chloro-2-(trifluoromethoxy)phenyl][1,2,4]triazolo[1,5-c]quinazolin-5-yl}amino)pyrrolidin-2-one] | – | – | – |
| 1.33e-08 | 38.7 | COc1ccc(-c2nc3c4cc(OC)ccc4nc(N[C@@H]4CCCCNC4=O)n3n2)cc1 [Example 237, (3R)-3-{[9-methoxy-2-(4-methoxyphenyl)[1,2,4]triazolo[1,5-c]quinazolin-5-yl]amino}azepan-2-one] | – | – | – |
| > 2e-05 | 446 | Cn1cc(-c2nc3c4cccc(C(F)(F)F)c4nc(NC4C(=O)NCC4(C)C)n3n2)cn1 (racemic) [Example 728, (+/−)-4,4-dimethyl-3-{[2-(1-methyl-1H-pyrazol-4-yl)-7-(trifluoromethyl)[1,2,4]triazolo[1,5-c]quinazolin-5-yl]amino}pyrrolidin-2-one] | – | – | – |
| 7.5e-09 | 1.4 | CC[C@@H](Nc1nc2ccccc2c2nc(-c3ccc(OC)cc3OC(F)(F)F)nn12)C(N)=O [Example 511, (2R)-2-({2-[4-methoxy-2-(trifluoromethoxy)phenyl][1,2,4]triazolo[1,5-c]quinazolin-5-yl}amino)butanamide] | – | – | – |

| SMILES | IC50 (AHR [1]) [M] | IC50 (AHR [2]; [3]) [nM] | IC50 (AHR [2]; [4]) [nM] | IC50 (AHR [1]; firefly luciferase reporter) [M] | IC50 (AHR [2]; read-out: AHR Antagonism Mouse IC50, Hepa 1c1c7 cells, 200 μM kynurenic acid, 20 hours, firefly luciferase reporter) [nM] |
| --- | --- | --- | --- | --- | --- |
| CC(C)c1cccc2c1nc(N[C@@H]1CCCCNC1=O)n1nc(-c3ccc(F)cc3)nc21 [Example 393, (3R)-3-{[2-(4-Fluorophenyl)-7-(propan-2-yl)[1,2,4]triazolo[1,5-c]quinazolin-5-yl]amino}azepan-2-one] | 4.34e-08 | – | 34.2 | – | – |
| CS(=N)(=O)c1ccccc1-c1nc2c3ccccc3nc(N[C@@H]3CCCCNC3=O)n2n1 (stereo partly drawn) [Example 650, (3R)-3-({2-[2-(S-methylsulfonimidoyl)phenyl][1,2,4]triazolo[1,5-c]quinazolin-5-yl}amino)azepan-2-one] | 1.1e-07 | – | 67.1 | – | – |

From patent US20230113037A1 (Bayer Aktiengesellschaft, priority 2019, published 2023)
